melting point: 171 to 172 °C
Structure (SMILES): O=C(O)c1cccc(-c2cccc(CC(=O)N(Cc3ccccc3)[C@@H]3c4ccccc4CC[C@H]3Cc3ccccc3)c2)c1 (relative stereo) [Example 1, trans-3′-{[Benzyl-(2-benzyl-1,2,3,4-tetrahydro-naphthalen-1-yl)-carbamoyl]-methyl}-biphenyl-3-carboxylic acid]
